Experimental data published in ChEMBL document CHEMBL1201862, “PubChem BioAssay data set” (2004).
Activity calls are given as the source filed them.

Legend:
[1] = molecular target: T1, Short transient receptor potential channel 4 (Mus musculus, UniProt Q9QUQ5); test: TRPC4 positive allosteric modulators, dose response, cell-based, HEK293 TRPC4/mu-opioid, Fluo-4 calcium, EC20 DAMGO (AID 434941); assay type: functional
T1 sequence (Q9QUQ5 whole entry): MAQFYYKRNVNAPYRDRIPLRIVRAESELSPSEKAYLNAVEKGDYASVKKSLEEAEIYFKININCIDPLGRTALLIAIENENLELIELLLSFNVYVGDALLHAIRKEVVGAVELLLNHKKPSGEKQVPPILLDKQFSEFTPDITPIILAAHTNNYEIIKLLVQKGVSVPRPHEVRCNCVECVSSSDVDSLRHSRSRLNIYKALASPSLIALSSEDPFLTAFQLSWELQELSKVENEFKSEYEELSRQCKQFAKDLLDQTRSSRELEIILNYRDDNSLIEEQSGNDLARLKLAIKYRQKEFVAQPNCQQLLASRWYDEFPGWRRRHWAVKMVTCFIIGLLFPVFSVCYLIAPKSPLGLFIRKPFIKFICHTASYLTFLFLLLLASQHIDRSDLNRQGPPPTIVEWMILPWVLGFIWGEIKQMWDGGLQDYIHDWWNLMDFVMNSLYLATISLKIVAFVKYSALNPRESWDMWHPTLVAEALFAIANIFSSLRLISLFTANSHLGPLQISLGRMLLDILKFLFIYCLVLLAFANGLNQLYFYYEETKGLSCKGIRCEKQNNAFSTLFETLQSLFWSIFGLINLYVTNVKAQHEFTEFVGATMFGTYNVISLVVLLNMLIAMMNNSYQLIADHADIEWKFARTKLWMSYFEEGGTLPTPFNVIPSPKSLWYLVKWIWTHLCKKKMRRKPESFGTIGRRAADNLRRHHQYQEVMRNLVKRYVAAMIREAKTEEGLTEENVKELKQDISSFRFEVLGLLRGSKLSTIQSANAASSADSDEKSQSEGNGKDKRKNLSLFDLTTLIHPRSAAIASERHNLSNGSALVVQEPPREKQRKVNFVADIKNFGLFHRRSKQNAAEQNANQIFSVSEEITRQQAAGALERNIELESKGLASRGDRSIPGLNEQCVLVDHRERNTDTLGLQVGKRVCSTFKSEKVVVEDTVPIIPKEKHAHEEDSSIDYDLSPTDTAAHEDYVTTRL

[2] = molecular target: T2, Ubiquitin-conjugating enzyme E2 N (Homo sapiens, UniProt P61088); assay type: functional;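 note: Dose-response confirmation in a TR-FRET assay detecting UBC13-driven polyubiquitin chain formation, inhibition measured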
T2 sequence (P61088 whole entry): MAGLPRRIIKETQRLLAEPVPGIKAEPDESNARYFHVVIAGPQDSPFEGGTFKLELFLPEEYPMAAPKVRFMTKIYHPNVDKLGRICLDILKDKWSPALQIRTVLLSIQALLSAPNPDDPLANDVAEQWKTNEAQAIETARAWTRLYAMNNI

[3] = molecular target: CAAX prenyl protease 2 (Saccharomyces cerevisiae S288c, UniProt Q03530); assay type: biochemical
[4] = molecular target: T3, DNA repair and recombination protein RAD54-like (Homo sapiens, UniProt Q92698); test: inhibitors of human RAD54 branch migration, confirmation, biochemical, fluorescence, cherry-picked samples, dose series (AID 651657); assay type: functional
T3 sequence (Q92698 whole entry): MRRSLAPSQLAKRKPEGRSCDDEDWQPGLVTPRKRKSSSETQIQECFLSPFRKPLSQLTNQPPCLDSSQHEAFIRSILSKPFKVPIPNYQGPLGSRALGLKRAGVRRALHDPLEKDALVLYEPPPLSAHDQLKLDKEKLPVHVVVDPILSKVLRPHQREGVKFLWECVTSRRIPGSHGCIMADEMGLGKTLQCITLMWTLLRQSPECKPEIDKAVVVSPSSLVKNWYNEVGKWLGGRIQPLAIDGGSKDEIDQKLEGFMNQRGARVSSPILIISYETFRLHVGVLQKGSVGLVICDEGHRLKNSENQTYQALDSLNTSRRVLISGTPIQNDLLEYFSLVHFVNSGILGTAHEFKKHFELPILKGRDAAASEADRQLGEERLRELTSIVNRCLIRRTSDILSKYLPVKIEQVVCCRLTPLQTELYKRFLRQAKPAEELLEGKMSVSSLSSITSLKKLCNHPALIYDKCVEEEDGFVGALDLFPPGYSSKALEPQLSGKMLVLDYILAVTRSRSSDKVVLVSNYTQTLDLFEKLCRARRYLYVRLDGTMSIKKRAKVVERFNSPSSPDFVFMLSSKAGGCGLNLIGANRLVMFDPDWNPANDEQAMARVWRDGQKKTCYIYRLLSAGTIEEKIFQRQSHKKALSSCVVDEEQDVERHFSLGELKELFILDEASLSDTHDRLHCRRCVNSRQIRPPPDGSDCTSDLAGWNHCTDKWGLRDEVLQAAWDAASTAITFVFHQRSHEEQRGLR

[5] = test system: Vero; test: cells; assay type: functional, cell-based; conditions: Chlorocebus sabaeus
[6] = molecular target: Endoplasmic reticulum aminopeptidase 1 (Homo sapiens, UniProt Q9NZ08); test: ERAP1 aminopeptidase inhibitors, dose response, biochemical, cherry-pick, set 2, plate reader (AID 743314)
[7] = test system: Vero; test: West Nile virus antiviral activity, cell-based, CPE readout (AID 1621); assay type: functional; conditions: Chlorocebus sabaeus
[8] = test system: Vero; test: cells; assay type: functional; conditions: Chlorocebus sabaeus
[9] = test system: Vero; test: cytotoxicity of synthesized analogs in Vero cells, SAR follow-up, cytotoxicity control for West Nile virus antiviral project, cell-based, set II (AID 2402); assay type: functional; conditions: Chlorocebus sabaeus
[10] = test system: Vero; test: West Nile virus CPE inhibition, SAR follow-up, cell-based, synthesized analogs (AID 2238); assay type: functional; conditions: Chlorocebus sabaeus
[11] = test system: Vero; test: cytotoxicity of synthesized analogs in Vero 76, SAR follow-up, cytotoxicity control for West Nile virus antiviral project, Vero 76 cells (AID 2414); assay type: functional; conditions: Chlorocebus sabaeus
[12] = test system: Vero; test: Vero E6 cell cytotoxicity, SAR follow-up, cytotoxicity control for West Nile virus antiviral project, synthesized analogs (AID 2244); assay type: functional; conditions: Chlorocebus sabaeus
[13] = A Cell Based Assay for the Identification of Probe candidate Compounds with Anti- Venezuelan Equine Encephalitis virus. [Related pubchem assays: 2409, 2419, 1621, 2238, 2405, 2024, 2065, 2402, 2414, 1635, 1650, 2244 ]; assay type: functional
[14] = HEp-2 cell cytotoxicity, dose response, cytotoxicity control for RSV inhibitor project, HTS (AID 2410); assay type: functional; conditions: human respiratory syncytial virus
[15] = molecular target: Intestinal-type alkaline phosphatase (Homo sapiens, UniProt P09923); test: Dose Response confirmation of uHTS hits from a small molecule inhibitors of human intestinal alkaline phosphatase via a luminescent assay. [Related pubchem assays (depositor defined):AID2544, AID2574]; assay type: functional
[16] = test system: Streptococcus; test: Group A Streptococcus viability loss, dose response, counter-screen for streptokinase expression inhibitor project, luminescence, BacTiterGlo (AID 1915); assay type: functional, organism-based;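 note: potency for reduction of bacterial viability or growth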
[17] = molecular target: T4, Protein skinhead-1 (Caenorhabditis elegans, UniProt P34707); assay type: functional
T4 sequence (P34707 whole entry): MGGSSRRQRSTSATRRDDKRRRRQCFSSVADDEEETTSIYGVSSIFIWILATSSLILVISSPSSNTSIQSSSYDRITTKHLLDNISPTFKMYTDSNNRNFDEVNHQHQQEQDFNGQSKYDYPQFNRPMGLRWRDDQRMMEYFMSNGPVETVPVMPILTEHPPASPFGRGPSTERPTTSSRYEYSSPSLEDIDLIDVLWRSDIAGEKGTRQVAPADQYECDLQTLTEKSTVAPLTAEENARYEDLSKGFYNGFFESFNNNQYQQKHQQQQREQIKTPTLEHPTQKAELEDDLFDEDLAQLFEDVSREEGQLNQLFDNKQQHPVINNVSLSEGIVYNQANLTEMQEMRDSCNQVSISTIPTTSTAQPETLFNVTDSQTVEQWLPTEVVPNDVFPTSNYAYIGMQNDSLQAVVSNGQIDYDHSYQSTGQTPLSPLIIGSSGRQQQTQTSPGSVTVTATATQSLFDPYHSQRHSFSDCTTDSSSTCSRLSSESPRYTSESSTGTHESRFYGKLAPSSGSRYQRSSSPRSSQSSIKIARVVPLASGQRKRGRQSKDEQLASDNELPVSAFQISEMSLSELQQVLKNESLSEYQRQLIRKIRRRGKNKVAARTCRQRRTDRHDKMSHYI

[18] = molecular target: Beta-galactosidase (Escherichia coli, UniProt Q8VNN2); test: beta-galactosidase enzyme inhibitors and activators, dose response, artefact control for CCR6 antagonist project, biochemical, E. coli enzyme, set 3 (AID 504712); assay type: functional
[19] = molecular target: T5, Streptokinase A (Streptococcus pyogenes serotype M1, UniProt P10520); test: S. pyogenes streptokinase expression inhibitors, potency, dose response, plasminogen activation absorbance, OD405 (AID 1914); assay type: functional, Streptococcus pyogenes M1 GAS;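 note: secreted streptokinase activity via plasminogen activation per viability signal from cell pellet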
T5 sequence (P10520 whole entry): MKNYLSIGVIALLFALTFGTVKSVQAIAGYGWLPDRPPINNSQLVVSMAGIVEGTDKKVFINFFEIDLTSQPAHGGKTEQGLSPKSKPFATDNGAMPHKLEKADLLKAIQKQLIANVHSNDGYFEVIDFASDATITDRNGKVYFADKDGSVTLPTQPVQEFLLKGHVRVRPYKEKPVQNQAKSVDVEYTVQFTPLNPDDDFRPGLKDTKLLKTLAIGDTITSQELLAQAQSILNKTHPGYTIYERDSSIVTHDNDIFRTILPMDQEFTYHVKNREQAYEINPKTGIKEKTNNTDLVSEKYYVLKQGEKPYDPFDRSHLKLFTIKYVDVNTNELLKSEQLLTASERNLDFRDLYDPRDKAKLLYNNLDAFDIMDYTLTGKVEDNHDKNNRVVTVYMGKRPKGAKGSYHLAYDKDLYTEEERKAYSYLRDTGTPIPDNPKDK

[20] = HepG2 cell cytotoxicity, dose response, cytotoxicity control for non-replicating M. tuberculosis project (AID 489018); assay type: functional; conditions: Mycobacterium tuberculosis
[21] = THP-1 cell cytotoxicity, dose response, cytotoxicity control for non-replicating M. tuberculosis project (AID 489025); assay type: functional
[22] = C. albicans growth with fluconazole, confirmation, fluorescence, retest (AID 2467); assay type: functional, cell-based
[23] = Vero E6 cell cytotoxicity, dose response, cytotoxicity control for non-replicating M. tuberculosis project, secondary assay (AID 492998); assay type: functional, VeroE6; conditions: Vero C1008
[24] = test system: Streptococcus sp. 'group A'; test: growth inhibition of control SK(-) GAS strain, dose response, counter-screen for streptokinase expression inhibitor project, luminescence, kanamycin, BacTiterGlo, confirmation (AID 1900); assay type: functional, organism-based
[25] = cells; assay type: functional
[26] = NIH-3T3 fibroblast cytotoxicity, dose response, cytotoxicity control, cell-based, fluorescence, Alamar Blue, secondary assay (AID 2327); assay type: functional;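 note: NIH-3T3 mouse fibroblasts cultured with fluconazole at 8 µg/mL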
[27] = molecular target: NACHT, LRR and PYD domains-containing protein 3 (Homo sapiens, UniProt Q96P20); test: NALP3 inhibitors in yeast, dose response, luminescent (AID 488799); assay type: functional
[28] = molecular target: Voltage-dependent T-type calcium channel subunit alpha-1H (Homo sapiens, UniProt O95180); test: Cav3.2 T-type channel inhibitors, cell-based, synthetic library set 1, calcium flux (AID 493022); assay type: functional
[29] = molecular target: Envelope glycoprotein gp160 (Human immunodeficiency virus 1, UniProt Q6QLK5); test: inhibitors of HIV fusion peptide binding, primary screen, biochemical, uHTS, fluorescence dequenching (AID 1986)
[30] = molecular target: FAD-linked sulfhydryl oxidase ALR (Homo sapiens, UniProt P55789); test: inhibitors of human ALR sulfhydryl oxidase, dose response, biochemical, H2O2 detection, luminescence, cherry-pick (AID 493248)
FAD-linked sulfhydryl oxidase ALR, sequence (P55789 whole entry): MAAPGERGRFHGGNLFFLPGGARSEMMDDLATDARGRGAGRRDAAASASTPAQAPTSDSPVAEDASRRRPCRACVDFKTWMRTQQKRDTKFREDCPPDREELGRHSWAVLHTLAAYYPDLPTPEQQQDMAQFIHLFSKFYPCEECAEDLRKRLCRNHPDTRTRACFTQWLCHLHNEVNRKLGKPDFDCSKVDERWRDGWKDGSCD

Voltage-dependent T-type calcium channel subunit alpha-1H, sequence (O95180 whole entry, the tested form may be a part): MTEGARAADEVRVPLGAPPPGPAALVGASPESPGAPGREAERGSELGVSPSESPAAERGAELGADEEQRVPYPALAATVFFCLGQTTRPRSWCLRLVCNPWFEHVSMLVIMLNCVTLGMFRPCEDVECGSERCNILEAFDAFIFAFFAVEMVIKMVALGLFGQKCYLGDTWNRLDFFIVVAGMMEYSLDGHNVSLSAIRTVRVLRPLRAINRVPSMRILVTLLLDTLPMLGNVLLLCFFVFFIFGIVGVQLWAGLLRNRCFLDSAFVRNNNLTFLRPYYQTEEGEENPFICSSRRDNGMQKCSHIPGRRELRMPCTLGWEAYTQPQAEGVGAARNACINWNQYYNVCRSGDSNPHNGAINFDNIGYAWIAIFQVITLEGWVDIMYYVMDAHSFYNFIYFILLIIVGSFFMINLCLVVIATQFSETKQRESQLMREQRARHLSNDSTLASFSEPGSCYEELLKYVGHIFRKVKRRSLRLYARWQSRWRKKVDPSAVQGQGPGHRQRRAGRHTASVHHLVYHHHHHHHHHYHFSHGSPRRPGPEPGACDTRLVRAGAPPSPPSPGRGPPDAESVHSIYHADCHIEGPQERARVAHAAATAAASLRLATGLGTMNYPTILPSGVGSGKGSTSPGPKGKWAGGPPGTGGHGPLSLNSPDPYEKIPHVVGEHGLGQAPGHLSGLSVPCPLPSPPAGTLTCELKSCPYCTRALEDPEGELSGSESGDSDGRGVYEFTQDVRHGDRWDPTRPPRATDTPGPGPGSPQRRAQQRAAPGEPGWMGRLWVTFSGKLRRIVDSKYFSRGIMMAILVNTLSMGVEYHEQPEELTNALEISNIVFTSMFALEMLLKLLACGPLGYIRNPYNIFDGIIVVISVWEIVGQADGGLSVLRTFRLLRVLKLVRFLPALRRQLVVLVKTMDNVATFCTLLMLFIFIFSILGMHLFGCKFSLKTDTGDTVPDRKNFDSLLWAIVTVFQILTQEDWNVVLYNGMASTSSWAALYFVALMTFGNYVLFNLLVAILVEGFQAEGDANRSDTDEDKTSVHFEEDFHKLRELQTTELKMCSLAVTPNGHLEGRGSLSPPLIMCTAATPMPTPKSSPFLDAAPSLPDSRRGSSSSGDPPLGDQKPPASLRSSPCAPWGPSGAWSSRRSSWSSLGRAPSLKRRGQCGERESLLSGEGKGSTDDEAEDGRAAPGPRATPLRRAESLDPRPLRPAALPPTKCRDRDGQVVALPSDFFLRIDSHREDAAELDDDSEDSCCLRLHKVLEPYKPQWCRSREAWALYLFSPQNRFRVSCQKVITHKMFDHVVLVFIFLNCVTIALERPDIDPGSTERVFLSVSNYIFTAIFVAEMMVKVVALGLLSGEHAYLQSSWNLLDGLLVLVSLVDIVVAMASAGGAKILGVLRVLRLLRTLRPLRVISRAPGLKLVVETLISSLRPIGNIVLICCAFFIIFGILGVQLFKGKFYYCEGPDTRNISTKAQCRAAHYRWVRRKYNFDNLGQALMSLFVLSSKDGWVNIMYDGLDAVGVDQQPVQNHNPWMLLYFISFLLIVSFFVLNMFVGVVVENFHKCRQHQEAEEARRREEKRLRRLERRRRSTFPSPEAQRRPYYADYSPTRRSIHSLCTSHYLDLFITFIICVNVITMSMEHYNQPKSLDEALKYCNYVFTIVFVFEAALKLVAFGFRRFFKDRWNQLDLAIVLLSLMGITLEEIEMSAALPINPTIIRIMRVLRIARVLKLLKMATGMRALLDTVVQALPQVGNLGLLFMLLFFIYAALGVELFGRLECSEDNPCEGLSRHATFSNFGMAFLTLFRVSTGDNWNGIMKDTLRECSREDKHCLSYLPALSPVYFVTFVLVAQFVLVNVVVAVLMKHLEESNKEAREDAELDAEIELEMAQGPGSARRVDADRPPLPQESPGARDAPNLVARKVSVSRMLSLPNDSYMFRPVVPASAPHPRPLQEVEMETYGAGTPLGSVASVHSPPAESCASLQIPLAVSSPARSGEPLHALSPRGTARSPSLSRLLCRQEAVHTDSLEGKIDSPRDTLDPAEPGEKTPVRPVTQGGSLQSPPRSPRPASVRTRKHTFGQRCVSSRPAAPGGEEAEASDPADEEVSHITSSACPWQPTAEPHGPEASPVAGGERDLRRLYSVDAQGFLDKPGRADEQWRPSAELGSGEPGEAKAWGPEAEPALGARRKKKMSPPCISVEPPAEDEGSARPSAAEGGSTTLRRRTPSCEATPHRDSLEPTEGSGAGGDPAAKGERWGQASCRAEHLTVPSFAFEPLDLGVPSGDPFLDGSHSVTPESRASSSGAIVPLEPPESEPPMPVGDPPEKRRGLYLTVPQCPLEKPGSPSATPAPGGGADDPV
Endoplasmic reticulum aminopeptidase 1, sequence (Q9NZ08 whole entry): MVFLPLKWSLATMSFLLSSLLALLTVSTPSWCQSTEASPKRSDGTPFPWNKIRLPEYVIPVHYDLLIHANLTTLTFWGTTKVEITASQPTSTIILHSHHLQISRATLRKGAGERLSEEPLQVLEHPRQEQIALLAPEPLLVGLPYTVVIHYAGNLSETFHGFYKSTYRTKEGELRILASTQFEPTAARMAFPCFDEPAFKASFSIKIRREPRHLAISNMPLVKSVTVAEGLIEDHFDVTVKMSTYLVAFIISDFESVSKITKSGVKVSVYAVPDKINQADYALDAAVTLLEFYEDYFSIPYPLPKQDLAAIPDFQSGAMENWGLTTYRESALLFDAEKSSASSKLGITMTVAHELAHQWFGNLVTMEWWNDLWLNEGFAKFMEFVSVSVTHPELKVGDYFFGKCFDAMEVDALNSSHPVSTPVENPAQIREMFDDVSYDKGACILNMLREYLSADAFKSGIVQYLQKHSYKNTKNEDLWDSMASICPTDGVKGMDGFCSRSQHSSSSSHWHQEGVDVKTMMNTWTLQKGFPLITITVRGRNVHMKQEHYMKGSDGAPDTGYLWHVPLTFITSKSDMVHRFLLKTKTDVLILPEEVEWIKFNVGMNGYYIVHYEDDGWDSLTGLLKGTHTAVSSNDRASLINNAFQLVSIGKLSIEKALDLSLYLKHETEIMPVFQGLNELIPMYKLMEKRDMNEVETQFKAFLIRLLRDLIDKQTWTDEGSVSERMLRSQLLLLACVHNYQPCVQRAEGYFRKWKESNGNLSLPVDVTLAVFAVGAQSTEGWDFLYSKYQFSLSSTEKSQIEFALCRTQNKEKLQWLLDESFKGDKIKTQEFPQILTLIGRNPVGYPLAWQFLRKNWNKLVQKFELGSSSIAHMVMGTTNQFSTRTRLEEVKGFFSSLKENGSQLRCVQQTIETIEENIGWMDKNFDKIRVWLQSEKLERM
NACHT, LRR and PYD domains-containing protein 3, sequence (Q96P20 whole entry, the tested form may be a part): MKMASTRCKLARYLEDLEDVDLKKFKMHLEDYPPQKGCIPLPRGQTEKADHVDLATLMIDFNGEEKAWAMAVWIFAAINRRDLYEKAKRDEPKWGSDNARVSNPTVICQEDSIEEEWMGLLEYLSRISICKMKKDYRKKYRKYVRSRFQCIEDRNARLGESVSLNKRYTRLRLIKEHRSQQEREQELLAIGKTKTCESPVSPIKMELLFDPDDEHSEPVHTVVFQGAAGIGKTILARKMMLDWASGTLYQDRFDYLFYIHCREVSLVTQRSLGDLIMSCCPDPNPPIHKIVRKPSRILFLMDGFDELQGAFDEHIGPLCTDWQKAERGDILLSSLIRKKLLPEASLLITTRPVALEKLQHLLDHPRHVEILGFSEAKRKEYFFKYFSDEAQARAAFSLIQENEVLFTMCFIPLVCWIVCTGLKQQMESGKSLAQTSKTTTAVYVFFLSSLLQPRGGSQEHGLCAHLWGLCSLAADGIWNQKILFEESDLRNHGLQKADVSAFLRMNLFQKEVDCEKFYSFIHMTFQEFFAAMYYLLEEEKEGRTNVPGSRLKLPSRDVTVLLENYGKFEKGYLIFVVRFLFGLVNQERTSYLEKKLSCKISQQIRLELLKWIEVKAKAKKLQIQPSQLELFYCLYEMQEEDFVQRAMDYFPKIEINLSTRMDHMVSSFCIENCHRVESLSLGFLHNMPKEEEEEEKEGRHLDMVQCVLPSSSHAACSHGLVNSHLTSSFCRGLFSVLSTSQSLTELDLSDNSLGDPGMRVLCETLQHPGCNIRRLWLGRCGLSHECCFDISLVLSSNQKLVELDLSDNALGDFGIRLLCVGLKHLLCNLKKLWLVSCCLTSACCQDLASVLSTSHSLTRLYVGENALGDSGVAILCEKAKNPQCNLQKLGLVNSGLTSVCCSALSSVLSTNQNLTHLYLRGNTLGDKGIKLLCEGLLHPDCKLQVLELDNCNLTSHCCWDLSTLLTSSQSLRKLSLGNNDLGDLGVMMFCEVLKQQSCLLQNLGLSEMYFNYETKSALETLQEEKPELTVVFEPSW
CAAX prenyl protease 2, sequence (Q03530 whole entry): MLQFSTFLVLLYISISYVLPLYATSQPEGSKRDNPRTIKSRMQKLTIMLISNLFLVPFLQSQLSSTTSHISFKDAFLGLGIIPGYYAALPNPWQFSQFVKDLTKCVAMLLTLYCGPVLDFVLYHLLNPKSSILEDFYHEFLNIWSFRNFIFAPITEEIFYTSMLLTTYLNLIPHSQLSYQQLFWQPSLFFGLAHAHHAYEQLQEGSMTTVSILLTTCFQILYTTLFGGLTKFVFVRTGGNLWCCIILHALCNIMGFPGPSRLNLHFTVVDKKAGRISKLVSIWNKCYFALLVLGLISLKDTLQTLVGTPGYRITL

## CCCCN(C)CCNC(=O)c1cc2c(-c3cccc(OC)c3)nn(C)c2s1
[1]
  EC50: 0.07 µM (active)
[2]
  IC50: > 20 µM (inactive)
[3]
  AC50: 16 µM (active)
[4]
  AC50: 31.5 µM (active)

## CC1CCCC(C)N1CCCNC(=O)c1cc2c(s1)-c1ccccc1OC2 (stereo not given)
[5]
  IC50: > 25 µM (active)
[6]
  AC50: 12.5 µM (active)
[7]
  IC50: 19 µM (active)
[8]
  CC50: > 25 µM (active)
[9]
  CC50: 11 µM (active)
[10]
  IC50: > 40 µM (active)
[11]
  CC50: 24.3 µM (active)
[12]
  CC50: 12.4 µM (active)
[13]
  IC50: 11.8 µM (active)
[14]
  CC50: 18.2 µM (active)

## CC(=O)N1CCOc2ccc(S(=O)(=O)N3CCCC(C)C3)cc21 (stereo not given)
[15]
  IC50: > 100 µM (inactive)

## CN(C)CCCNc1cc(C(C)(C)C)nc2c(-c3ccc(Cl)cc3)cnn12
[16]
  EC50: 8.08 µM (active)
[17]
  IC50: > 100 µM (inactive)
[18]
  IC50: > 66.6 µM (inactive)
[19]
  EC50: > 150 µM (not active)
[20]
  CC50: 13 µM (active)
[2]
  IC50: > 20 µM (inactive)
[21]
  CC50: 11.4 µM (active)
[22]
  EC50: > 38 µM (not active)
[23]
  CC50: 10.8 µM (active)
[24]
  EC50: 1.91 µM (active)
[25]
  IC50: 12.4 µM (active)
[26]
  EC50: 12.5 µM (active)

## Brc1ccc(-n2cnc(-c3ccccc3)c2)cc1
[17]
  IC50: > 100 µM (inactive)
[27]
  IC50: 35.4 µM (active)

## Cc1ccc(-c2nnc(NC(=O)COc3ccccc3F)o2)cc1C
[28]
  EC50: 2.3 µM (active)

## O=C(O)c1cccc2c(-c3ccccc3)c(-c3ccccc3)[nH]c12
[16]
  EC50: > 150 µM (not active)
[19]
  EC50: 15.6 µM (active)
[29]
  IC50: 16.8 µM (active)
[30]
  AC50: 4.56 µM (active)
[24]
  EC50: 6.24 µM (active)
